Data on one molecule can be found in patent US20090175882A1, “METHODS AND COMPOSITIONS FOR TREATING HYPERALGESIA” (IRM LLC, priority 2006, published 2009).

Data set [1] has as its target T1, mouse TRPA1 (Mus musculus, UniProt Q8BLA8).
T1 construct: expressed in transfected cells; host or cells: CHO cells (tetracycline-induced for PatchXpress; mTRPA1-pcDNA5 named for the transient labelling experiment)
Kind of data set: Whole-cell electrophysiology of TRPA1-expressing CHO cells (pressure, hyperosmolarity, cold). The class given is cell-based. To be noted: data not shown. From the text:
We tested if TRPA1 is activated by mechanical forces. The electrophysiological behavior of thermoTRP-expressing Chinese Hamster Ovary (CHO) cells was investigated with two different assays of mechanical stress—pressure application using the recording pipette and changes in external osmolarity.
Mechanosensory neurons are often classified as high- or low-threshold, characterizing responses to pain and touch, respectively. We tested the mechanical threshold of TRPA1 by applying a wide range of negative pipette pressures (FIG. 1C). TRPA1-expressing CHO cells are activated at −90 mmHg or higher, consistent with native high-threshold mechanical receptors involved in sensing pain (Cho et al., J Neurosci 22:1238, 2002). […] Gadolinium (Gd^3+) is considered a blocker of native mechanically-gated ion channels in animal tissues (Martinac et al., Physiol Rev 81:685, 2001). […] FM1-43 is a styryl dye that specifically labels sensory cells by entering through open transduction channels. […] Furthermore, it was observed that 10 μM of FM1 -43 was able to block cinnamaldehyde-induced currents in TRPA1-expressing CHO cells (n=8).
To ensure that the mechanical response we observe is not an artifact of heterologous expression system, we tested if native TRPA1-expressing neurons also respond to such stimuli. 5/6 cinnamaldehyde-sensitive (presumptive TRPA1-expressing) DRG neurons responded to an application of −200 mmHg of suction, while 0/21 cinnamaldehyde insensitive neurons responded (16 of 21 were capsaicin-sensitive) (FIG. 2B). Millimolar camphor was recently reported to inhibit basal currents and cold or agonist-activation of TRPA1.
Mammalian cell electrophysiology: ThermoTRP-expressing CHO cells (rat TRPV1, rat TRPV2, mouse TRPV3, rat TRPV4, mouse TRPM8, and mouse TRPA1), control CHO cells, and cultured rat DRG neurons were prepared as described in Story et al., Cell 112:819, 2003; and Bandell et al., Neuron 41:849, 2004. Electrophysiological recordings were performed as described in Bandell et al., Neuron 41:849, 2004. Briefly, CHO cells were clamped at −60 mV and 0.8 second ramps from −80 mV to +80 mV were run every 4 seconds. Currents from DRG neurons were recorded at −60 mV and for their current-voltage curve, 300 ms voltage step at +20 mV was used 40 ms before 800 ms ramp from -80 mV to +80 mV to minimize contamination of voltage gated Na^+ or Ca^2+ current. The pipette solution for temperature and hyperosmotic experiments consisted of (in mM) 140 CsCl, 5 EGTA, 10 HEPES, 2 MgATP, 0.2 NaGTP, titrated to pH 7.4 with CsOH. The base external solution for these experiments consisted of (in mM) 140 NaCl, 5KCl, 10 HEPES, 2CaCl2, 1MgCl2, titrated to pH 7.4 with NaOH. Mannitol was used to adjust osmolarity for hypertonic solutions. For mouse TRPV3 and rat TRPV2, external calcium was replaced with 5 mM EGTA. Gluconate was substituted for chloride in (±)-pressure and hypotonic experiments to eliminate the potential for endogenous swelling-activated chloride currents. For these experiments, pipette solution (295 mOsm) consisted of (in mM) 125 Cs-gluconate, 15CsCl, 5 EGTA, 10 HEPES, 2 MgATP, 0.2NaGTP, titrated to pH 7.4 with CsOH. The external solution consisted of (in mM) 90 Na-gluconate, 10 NaCl, 5 K-gluconate, 10 HEPES, 2 CaCl2, 1 MgCl2, titrated to pH 7.4 with NaOH. Osmolarity was adjusted with mannitol to 220 mOsm (hypotonic) or 298 mOsm 15 (isotonic). (±)-Pressure was hydrostatically delivered by the recording pipette using syringe pumping (Hamill et al., Annu Rev Physiol 59:621, 1997) and monitored through Pressure Monitor (World Precision Instruments). Warner temperature controller (TC-324B and CL-100) was used for the heating or cooling the perfused bath solutions. […] The number of cells (n) tested with -100 mmHg to −300 mmHg, ˜+100 mmHg, 450 mOsm, and 220 mOsm for each cell type, respectively, are: CHO cells, n=7, 14, 5, 12; TRPV1, n=6, 5, 7, 5; TRPV2, n=4, 5, 3, 5; TRPV3, n=3, 2, 3, 0; TRPM8, n=12, 4, 10, 0. […]

Data set [2] addresses T2, TRPV1 (Rattus norvegicus, UniProt O35433).
T2 construct: expressed in transfected cells; not restated for the selectivity test
Kind of data set: ThermoTRP selectivity test. In kind it is cell-based. To be noted: at 50 μM (data not shown).

For data set [3], the target named is T3, TRPV4 (Rattus norvegicus, UniProt Q9ERZ8).
T3 construct: expressed in transfected cells; not restated for the selectivity test
Kind of data set: ThermoTRP selectivity test. The class given is cell-based. Particulars: at 50 μM (data not shown).

The target of data set [4] is T4, TRPM8 (Mus musculus, UniProt Q8R4D5).
T4 construct: expressed in transfected cells; not restated for the selectivity test
Put plainly: ThermoTRP selectivity test. The class given is cell-based. Particulars: at 50 μM (data not shown).

Data set [5] is described as follows: Behavioral response to the compound alone in hindpaw. The class given is in vivo. Particulars: 1-10 mM in hindpaw of mice (data not shown).
The test system of data set [6] is CFA-induced cold hyperalgesia. Kind of data set: CFA-induced cold hyperalgesia on a 5° C. plate. In kind it is in vivo. Particulars: rats.
In data set [7] the target is TRPA1 (Homo sapiens, UniProt O75762). Put plainly: Cinnamaldehyde-induced currents in inside-out excised patches of Xenopus oocytes. Particulars: coapplication with cinnamaldehyde, inside-out macropatches. In kind it is cell-based. More on the design: expressed in transfected cells; host or cells: Xenopus oocytes injected with cRNA (pOX vector).
Description: (C) Current-voltage relationship of TRPA1.
Mature 17 defolliculated Xenopus oocytes were injected with 50 nl of human TRPA1 cRNA at ˜1 μg/μl. Oocytes were incubated in ND96 (96 mM NaCl, 2 mM KCl, 1 mM MgCl2, 1.8 mM CaCl2, 5 mM HEPES, pH 7.4, supplemented with Na-pyruvate (2.5 mM), penicillin (100 u/ml) and streptomycin (100 μg/ml) 3-5 days to ensure expression. Vitelline envelopes were mechanically removed prior to recording. Recordings were made under voltage clamp from excised patches in the inside-out configuration at room temperature with 1-1.5 MΩ pipettes. The bath ground was isolated using an agar bridge. Capacitance and series resistance were compensated and solutions that eliminate native calcium-activated chloride currents were used (Patch electrode (in mM): 140 NaMES, 4 NaCl, 1 EGTA, 10 HEPES, pH 7.2; bath solution: 140 KMES, 4 KCl, 1 EGTA, 10 HEPES, pH 7.2). Compounds were added to the bath solution. Currents were recorded using a Multiclamp 700B amplifier and the pCLAMP acquisition suite.

The structures appear in SMILES notation. “Also recorded” adds a separate entry of the source.

T1 sequence (Q8BLA8 whole entry): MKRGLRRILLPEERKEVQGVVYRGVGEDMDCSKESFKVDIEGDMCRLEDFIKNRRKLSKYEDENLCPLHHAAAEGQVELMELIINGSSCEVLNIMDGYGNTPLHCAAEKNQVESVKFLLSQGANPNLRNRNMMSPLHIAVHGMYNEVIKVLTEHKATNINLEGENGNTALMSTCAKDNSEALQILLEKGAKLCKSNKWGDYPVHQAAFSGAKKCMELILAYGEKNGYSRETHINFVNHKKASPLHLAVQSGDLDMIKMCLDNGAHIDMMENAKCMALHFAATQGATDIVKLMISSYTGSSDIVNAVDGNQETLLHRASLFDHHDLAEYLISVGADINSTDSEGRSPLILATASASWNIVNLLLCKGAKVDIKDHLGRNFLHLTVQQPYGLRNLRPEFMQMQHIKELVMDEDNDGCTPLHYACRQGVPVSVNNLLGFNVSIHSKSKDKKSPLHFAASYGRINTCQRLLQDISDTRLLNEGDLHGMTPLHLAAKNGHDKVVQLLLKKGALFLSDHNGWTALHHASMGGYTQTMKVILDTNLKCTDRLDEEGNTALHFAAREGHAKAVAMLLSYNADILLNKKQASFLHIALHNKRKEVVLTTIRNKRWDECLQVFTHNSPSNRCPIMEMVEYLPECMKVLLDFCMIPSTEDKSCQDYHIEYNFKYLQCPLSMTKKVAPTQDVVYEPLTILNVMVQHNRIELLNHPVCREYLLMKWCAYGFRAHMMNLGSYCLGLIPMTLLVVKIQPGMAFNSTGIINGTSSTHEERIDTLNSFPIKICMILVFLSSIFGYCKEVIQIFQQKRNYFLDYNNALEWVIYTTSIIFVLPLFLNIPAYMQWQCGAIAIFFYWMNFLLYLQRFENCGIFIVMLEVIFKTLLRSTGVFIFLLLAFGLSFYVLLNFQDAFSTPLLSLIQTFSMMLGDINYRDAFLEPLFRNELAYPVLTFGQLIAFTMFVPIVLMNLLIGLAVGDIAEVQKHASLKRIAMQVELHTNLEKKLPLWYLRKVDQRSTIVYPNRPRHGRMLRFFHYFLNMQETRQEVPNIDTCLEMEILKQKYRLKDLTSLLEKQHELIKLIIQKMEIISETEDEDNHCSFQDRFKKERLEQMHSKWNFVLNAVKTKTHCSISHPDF
TRPA1, sequence (O75762 whole entry): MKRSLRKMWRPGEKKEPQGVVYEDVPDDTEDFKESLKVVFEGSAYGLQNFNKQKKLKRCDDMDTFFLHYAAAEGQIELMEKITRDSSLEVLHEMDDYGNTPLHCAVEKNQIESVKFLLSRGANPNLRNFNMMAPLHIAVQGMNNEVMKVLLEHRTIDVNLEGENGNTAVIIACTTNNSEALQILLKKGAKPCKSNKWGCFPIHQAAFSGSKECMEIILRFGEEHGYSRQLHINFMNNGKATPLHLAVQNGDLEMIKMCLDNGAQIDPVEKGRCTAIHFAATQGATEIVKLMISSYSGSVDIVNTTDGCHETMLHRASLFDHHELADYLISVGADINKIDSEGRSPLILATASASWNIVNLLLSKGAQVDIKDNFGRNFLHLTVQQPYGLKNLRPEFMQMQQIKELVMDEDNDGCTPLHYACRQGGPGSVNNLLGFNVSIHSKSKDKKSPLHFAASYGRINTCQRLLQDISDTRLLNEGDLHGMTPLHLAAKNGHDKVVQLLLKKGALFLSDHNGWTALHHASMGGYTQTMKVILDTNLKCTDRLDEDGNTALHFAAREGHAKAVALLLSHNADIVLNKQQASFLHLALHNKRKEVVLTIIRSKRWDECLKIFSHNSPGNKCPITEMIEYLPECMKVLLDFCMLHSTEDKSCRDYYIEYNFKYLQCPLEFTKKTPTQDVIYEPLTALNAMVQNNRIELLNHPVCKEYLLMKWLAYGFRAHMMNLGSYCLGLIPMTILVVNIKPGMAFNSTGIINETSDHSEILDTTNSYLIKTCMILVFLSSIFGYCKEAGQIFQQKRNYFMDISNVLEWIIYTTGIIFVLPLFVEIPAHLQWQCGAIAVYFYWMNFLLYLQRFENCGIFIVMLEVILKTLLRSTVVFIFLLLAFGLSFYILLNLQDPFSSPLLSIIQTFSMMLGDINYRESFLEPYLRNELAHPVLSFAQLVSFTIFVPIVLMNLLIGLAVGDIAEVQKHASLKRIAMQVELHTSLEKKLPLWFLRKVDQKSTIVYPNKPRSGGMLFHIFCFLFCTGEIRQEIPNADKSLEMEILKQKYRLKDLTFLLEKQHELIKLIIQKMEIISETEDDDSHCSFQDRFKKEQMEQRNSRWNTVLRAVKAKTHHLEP
T3 sequence (Q9ERZ8 whole entry): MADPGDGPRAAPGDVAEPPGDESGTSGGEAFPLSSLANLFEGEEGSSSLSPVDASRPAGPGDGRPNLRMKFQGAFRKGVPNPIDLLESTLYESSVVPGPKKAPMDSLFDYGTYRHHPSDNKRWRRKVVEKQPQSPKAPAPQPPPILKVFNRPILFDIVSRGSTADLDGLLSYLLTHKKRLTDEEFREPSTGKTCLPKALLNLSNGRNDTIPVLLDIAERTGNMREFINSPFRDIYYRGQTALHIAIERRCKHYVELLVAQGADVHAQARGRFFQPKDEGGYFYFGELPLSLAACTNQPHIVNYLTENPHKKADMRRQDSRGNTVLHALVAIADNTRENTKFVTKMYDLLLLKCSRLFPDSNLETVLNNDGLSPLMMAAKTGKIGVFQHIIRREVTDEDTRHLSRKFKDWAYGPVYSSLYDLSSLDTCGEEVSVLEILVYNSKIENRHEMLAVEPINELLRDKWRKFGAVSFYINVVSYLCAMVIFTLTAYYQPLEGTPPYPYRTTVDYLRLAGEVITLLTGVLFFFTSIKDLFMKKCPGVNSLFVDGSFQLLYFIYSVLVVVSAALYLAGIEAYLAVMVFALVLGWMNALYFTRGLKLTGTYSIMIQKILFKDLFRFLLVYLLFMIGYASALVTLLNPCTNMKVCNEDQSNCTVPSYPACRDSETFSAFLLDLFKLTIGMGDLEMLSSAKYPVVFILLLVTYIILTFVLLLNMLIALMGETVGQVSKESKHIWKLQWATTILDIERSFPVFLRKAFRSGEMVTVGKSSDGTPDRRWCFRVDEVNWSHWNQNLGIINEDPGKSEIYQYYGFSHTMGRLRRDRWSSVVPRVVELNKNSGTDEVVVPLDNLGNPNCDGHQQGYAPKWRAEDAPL
T4 sequence (Q8R4D5 whole entry): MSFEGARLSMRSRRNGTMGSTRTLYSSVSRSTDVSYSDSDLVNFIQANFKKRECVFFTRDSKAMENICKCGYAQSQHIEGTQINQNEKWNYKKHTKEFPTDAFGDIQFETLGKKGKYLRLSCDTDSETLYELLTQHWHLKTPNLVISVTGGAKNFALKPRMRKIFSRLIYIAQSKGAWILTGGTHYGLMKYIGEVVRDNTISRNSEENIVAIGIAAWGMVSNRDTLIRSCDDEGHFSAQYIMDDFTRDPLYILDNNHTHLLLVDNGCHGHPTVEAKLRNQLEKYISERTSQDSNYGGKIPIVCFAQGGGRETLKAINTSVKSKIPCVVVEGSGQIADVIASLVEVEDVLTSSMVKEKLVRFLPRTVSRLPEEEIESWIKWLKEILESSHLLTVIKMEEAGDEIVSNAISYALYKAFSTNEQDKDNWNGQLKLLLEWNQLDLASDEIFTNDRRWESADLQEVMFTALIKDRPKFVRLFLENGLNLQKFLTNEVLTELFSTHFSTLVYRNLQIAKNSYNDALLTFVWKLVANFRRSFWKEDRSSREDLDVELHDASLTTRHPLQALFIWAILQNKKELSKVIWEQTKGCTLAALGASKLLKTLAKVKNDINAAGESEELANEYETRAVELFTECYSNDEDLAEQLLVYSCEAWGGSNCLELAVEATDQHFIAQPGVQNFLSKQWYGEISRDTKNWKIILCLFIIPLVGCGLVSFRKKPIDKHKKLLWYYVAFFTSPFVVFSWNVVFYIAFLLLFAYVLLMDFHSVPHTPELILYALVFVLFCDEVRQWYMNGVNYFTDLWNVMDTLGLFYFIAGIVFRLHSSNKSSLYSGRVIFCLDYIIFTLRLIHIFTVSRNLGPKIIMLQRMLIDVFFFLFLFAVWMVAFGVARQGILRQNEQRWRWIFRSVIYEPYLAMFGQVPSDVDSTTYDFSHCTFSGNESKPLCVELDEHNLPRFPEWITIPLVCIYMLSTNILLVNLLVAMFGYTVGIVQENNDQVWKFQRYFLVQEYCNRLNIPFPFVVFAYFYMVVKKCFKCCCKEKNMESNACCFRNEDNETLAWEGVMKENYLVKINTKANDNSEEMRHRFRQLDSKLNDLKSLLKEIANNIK
T2 sequence (O35433 whole entry): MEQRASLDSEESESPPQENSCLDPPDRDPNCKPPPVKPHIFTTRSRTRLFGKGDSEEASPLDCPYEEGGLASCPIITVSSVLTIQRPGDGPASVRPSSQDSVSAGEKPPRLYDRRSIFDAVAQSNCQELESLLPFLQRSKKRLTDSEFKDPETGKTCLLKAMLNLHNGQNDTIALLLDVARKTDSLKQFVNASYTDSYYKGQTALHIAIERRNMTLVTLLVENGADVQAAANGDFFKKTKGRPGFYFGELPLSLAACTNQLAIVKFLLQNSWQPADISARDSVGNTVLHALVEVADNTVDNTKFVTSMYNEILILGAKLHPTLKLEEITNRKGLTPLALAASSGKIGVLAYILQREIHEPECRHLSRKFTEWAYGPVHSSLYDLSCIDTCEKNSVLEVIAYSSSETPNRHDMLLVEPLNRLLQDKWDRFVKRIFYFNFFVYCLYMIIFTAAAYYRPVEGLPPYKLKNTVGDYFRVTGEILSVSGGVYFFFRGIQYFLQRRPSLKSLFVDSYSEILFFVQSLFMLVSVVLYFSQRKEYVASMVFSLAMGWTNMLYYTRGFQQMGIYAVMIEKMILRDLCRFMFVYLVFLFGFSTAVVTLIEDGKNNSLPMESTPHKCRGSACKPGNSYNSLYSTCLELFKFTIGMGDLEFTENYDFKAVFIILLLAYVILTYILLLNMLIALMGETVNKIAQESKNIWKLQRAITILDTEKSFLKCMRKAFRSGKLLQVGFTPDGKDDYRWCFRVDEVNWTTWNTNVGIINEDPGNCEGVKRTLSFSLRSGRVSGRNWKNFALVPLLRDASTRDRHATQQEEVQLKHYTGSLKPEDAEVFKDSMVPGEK

With `CC(=Cc1ccc(Cl)cc1)C(C)=NO` [Compound 18, (Z)-4-(4-chlorophynyl)-3-methylbut-3-en-2-oxime], in data set [1], the “block of TRPA1 responses in CHO cells induced by cold” value is reported as “blocked” and the “block of TRPA1 responses in CHO cells induced by pressure” value is “blocked”. In addition, in data set [2], the “block of TRPV1” value is recorded as “did not block”. In addition, the “block of TRPV4” value in data set [3] is “did not block”. The “block of TRPM8” value in data set [4] is given as “did not block”. For the same molecule, the “behavioral response to the compound alone” value in data set [5] was “did not cause any behavioral response”. The “CFA-induced cold hyperalgesia (flicks, licks, paw raises for 10 min)” value in data set [6] is reported as “reverses cold behaviours; also recorded: robust block”. In data set [7], the “block of cinnamaldehyde-induced TRPA1 currents in excised patches” value is reported as “suppressed; also recorded: blocked”.
